Some test systems named below: OVCAR-4; DU-145; HL-60; MCF7; OVCAR-5; SK-MEL-2; Malme-3M; HOP-92; EKVX; A498; SN12C; SW-620; 786-0; MDA-MB-435; NCI/ADR-RES; Hs-578T; UACC-62; A549; RPMI-8226.
Holding throughout (assay): DTP human tumour cell line panel, 48 h

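Following 48 hours of exposure in 96-well plates, responses at five concentrations were used to interpolate endpoints linearly. Abbreviation: GI50, concentration required for 50% inhibition of growth.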 Activity calls are given as the source filed them. No stated cut-off is given here; in the data, active = GI50 up to about 1.1 µM and inactive = higher.

`CCCCCCCC1c2cc3nc(cc4[nH]c(cc5nc(cc([nH]2)[C@@]1(C)CC(=O)N(C)C)C(C)=C5CCC(=O)O)c(CCC(=O)O)c4C)C=C3C` (some centres not stated): the GI50 – broadly, the concentration that inhibits growth by half – was 32.8 µM (inactive) in the experiment on OVCAR-4; 21.4 µM (inactive) in the experiment with DU-145; 23.7 µM (inactive) in the experiment on HL-60; 32.1 µM (inactive) in the experiment on MCF7; 25.5 µM (inactive) in the experiment with OVCAR-5; 18.8 µM (inactive) with SK-MEL-2. In addition, the GI50 is 19.9 µM (inactive) with Malme-3M; 21.2 µM (inactive) in the experiment with HOP-92; 55.8 µM (inactive) with EKVX; 33.3 µM (inactive) in the experiment with A498; 30.4 µM (inactive) with SN12C; 42.8 µM (inactive) with SW-620. The GI50 is 29.5 µM (inactive) with 786-0; 30.2 µM (inactive) with MDA-MB-435; 20.4 µM (inactive) in the experiment with NCI/ADR-RES; 18.7 µM (inactive) with Hs-578T; 18.5 µM (inactive) in the experiment on UACC-62; 50.2 µM (inactive) with A549. Moreover, the GI50 with RPMI-8226 was 17.7 µM (inactive).

As for `COc1cc(C2c3cc4c(cc3OC(O)C2C)OCO4)cc(OC)c1O` (configuration not stated), the GI50 with OVCAR-4 is 35.1 µM (inactive); with DU-145, 23.5 µM (inactive); with HL-60 it was 2.92 µM (inactive); in the experiment with MCF7, 4.4 µM (inactive); in the experiment on OVCAR-5, 46.8 µM (inactive); in the experiment with SK-MEL-2 it was 10.3 µM (inactive). Further, the GI50 in the experiment on Malme-3M was 3.86 µM (inactive); with HOP-92, 15.9 µM (inactive); in the experiment with EKVX, 19.2 µM (inactive); with A498, 23 µM (inactive); in the experiment on SN12C, 11.8 µM (inactive); in the experiment on SW-620, 4 µM (inactive). The GI50 with 786-0 is 8.89 µM (inactive); in the experiment with MDA-MB-435, 1.95 µM (inactive); with NCI/ADR-RES it was 3.49 µM (inactive); with Hs-578T, 8.02 µM (inactive); in the experiment on UACC-62, 3.49 µM (inactive); with A549 it was 7.64 µM (inactive). Also, in the experiment with RPMI-8226, the GI50 is 7.4 µM (inactive).

In the case of `CCCCCCCCCCCNC=O`, the GI50 was 45.3 µM (inactive) in the experiment with OVCAR-4; 84.7 µM (inactive) with DU-145; 15.1 µM (inactive) in the experiment on HL-60; 37.9 µM (inactive) with MCF7; 80.9 µM (inactive) in the experiment with OVCAR-5; 24.8 µM (inactive) in the experiment on SK-MEL-2. The GI50 was 54 µM (inactive) in the experiment with Malme-3M; 54.3 µM (inactive) with HOP-92; 52.8 µM (inactive) in the experiment on EKVX; 22.4 µM (inactive) in the experiment with A498; 63.4 µM (inactive) with SN12C; 48.3 µM (inactive) with SW-620. The GI50 in the experiment with 786-0 is > 100 µM (inactive); in the experiment with MDA-MB-435, 73.8 µM (inactive); in the experiment on NCI/ADR-RES, 30.6 µM (inactive); in the experiment with Hs-578T it was 52 µM (inactive); in the experiment with UACC-62, 51.2 µM (inactive); with A549 it was 51.3 µM (inactive). Further, in the experiment with RPMI-8226, the GI50 was 28.1 µM (inactive).

As for `Clc1ccc(COC(Cn2ccnc2)c2ccc(Cl)cc2Cl)cc1` (configuration not stated) [ECONAZOLE], the GI50 was 11.8 µM (inactive) in the experiment on OVCAR-4; 16.5 µM (inactive) with DU-145; 6.87 µM (inactive) in the experiment with HL-60; 12.4 µM (inactive) with MCF7; 11.5 µM (inactive) in the experiment with OVCAR-5; 14.8 µM (inactive) in the experiment with SK-MEL-2. Further, the GI50 in the experiment on Malme-3M was 12.3 µM (inactive); in the experiment with HOP-92 it was 10.6 µM (inactive); in the experiment on EKVX, 11.8 µM (inactive); in the experiment on A498, 14.2 µM (inactive); in the experiment with SN12C, 12.5 µM (inactive); in the experiment with SW-620, 12.1 µM (inactive). The GI50 with 786-0 was 13.1 µM (inactive); with MDA-MB-435, 11.8 µM (inactive); in the experiment on NCI/ADR-RES, 4.44 µM (inactive); in the experiment with Hs-578T, 17 µM (inactive); in the experiment on UACC-62 it was 12.1 µM (inactive); with A549 it was 11.2 µM (inactive). Besides, in the experiment with RPMI-8226, the GI50 is 8.26 µM (inactive).

On to `O=[N+]([O-])c1cc2oc(COc3ccccc3)nc2cc1Cl`, for which the GI50 in the experiment with OVCAR-4 is 34.9 µM (inactive); in the experiment with DU-145, 32.3 µM (inactive); in the experiment with HL-60, 38.1 µM (inactive); in the experiment on MCF7 it was 23.8 µM (inactive); in the experiment on OVCAR-5 it was 28.4 µM (inactive); in the experiment on SK-MEL-2, 22.1 µM (inactive). Also, the GI50 was 33.7 µM (inactive) in the experiment with Malme-3M; 22.5 µM (inactive) in the experiment on HOP-92; 21.9 µM (inactive) in the experiment with EKVX; 33.1 µM (inactive) in the experiment with A498; 24.7 µM (inactive) with SN12C; 43.2 µM (inactive) with SW-620. Also, the GI50 in the experiment with 786-0 was 33.1 µM (inactive); in the experiment on MDA-MB-435 it was 23.6 µM (inactive); in the experiment on NCI/ADR-RES, 21.4 µM (inactive); in the experiment with Hs-578T, 38.6 µM (inactive); with UACC-62, 17.1 µM (inactive); in the experiment on A549 it was 33.5 µM (inactive). Moreover, the GI50 with RPMI-8226 is 23.7 µM (inactive).

For `CC(=O)CC(O)(C(F)(F)Cl)C(F)(F)Cl`, the GI50 in the experiment with OVCAR-4, in the experiment on DU-145, in the experiment with HL-60, in the experiment with MCF7, with SK-MEL-2 and in the experiment on Malme-3M was > 10 µM (inactive) in each case. Besides, the GI50 in the experiment on HOP-92, in the experiment with EKVX, with A498, with SN12C, in the experiment on SW-620 and with 786-0 was > 10 µM (inactive) in each case. For the same compound, the GI50 with MDA-MB-435, in the experiment on NCI/ADR-RES, in the experiment with Hs-578T, with UACC-62, in the experiment with A549 and in the experiment with RPMI-8226 was > 10 µM (inactive) each time.

For the compound `C=C(CCOC)CCC1CCCCC(=C)[C@H]1O` (some centres not stated), the GI50 in the experiment with OVCAR-4, in the experiment on DU-145, with HL-60, in the experiment on MCF7, with OVCAR-5 and with SK-MEL-2 was > 100 µM (inactive) each time. Further, the GI50 in the experiment with HOP-92, in the experiment on EKVX, in the experiment on A498, in the experiment with SN12C, in the experiment with SW-620 and in the experiment on 786-0 was > 100 µM (inactive) each time. In addition, the GI50 with MDA-MB-435, in the experiment on NCI/ADR-RES, with Hs-578T, in the experiment on UACC-62, in the experiment on A549 and in the experiment with RPMI-8226 was > 100 µM (inactive) throughout.

Regarding `CN1CCN(c2ccc3[nH]c(-c4ccc5[nH]c(-c6ccc(N(C)CCCl)cc6)nc5c4)nc3c2)CC1`, the GI50 was 0.305 µM (active) in the experiment on OVCAR-4; 0.183 µM (active) with DU-145; < 0.01 µM (active) in the experiment with HL-60; < 0.01 µM (active) in the experiment with MCF7; 2.45 µM (inactive) in the experiment on OVCAR-5; 0.22 µM (active) in the experiment with SK-MEL-2. In addition, the GI50 was 0.208 µM (active) in the experiment with Malme-3M; 0.222 µM (active) in the experiment on HOP-92; 2.56 µM (inactive) in the experiment on A498; 0.0461 µM (active) in the experiment with SN12C; 0.14 µM (active) with SW-620; 0.13 µM (active) in the experiment with 786-0. The GI50 with MDA-MB-435 is 0.144 µM (active); in the experiment on NCI/ADR-RES, 40.6 µM (inactive); in the experiment with Hs-578T, 0.206 µM (active); in the experiment on UACC-62, 0.15 µM (active); in the experiment with A549 it was 0.286 µM (active); in the experiment on RPMI-8226 it was 1.62 µM (inactive).

Regarding `Cc1nc2ccc(Cl)cc2c2c1CCO2`, the GI50 with OVCAR-4 is > 100 µM (inactive); in the experiment on DU-145, 86.5 µM (inactive); with HL-60, 41.5 µM (inactive); with MCF7, > 100 µM (inactive); with Malme-3M, > 100 µM (inactive); in the experiment with HOP-92 it was 80 µM (inactive). The GI50 in the experiment on EKVX is 17.1 µM (inactive); with A498, 71 µM (inactive); with SN12C, > 100 µM (inactive); in the experiment on SW-620, > 100 µM (inactive); with 786-0 it was > 100 µM (inactive); with MDA-MB-435, > 100 µM (inactive). The GI50 with NCI/ADR-RES is > 100 µM (inactive); in the experiment on Hs-578T, > 100 µM (inactive); with UACC-62, 71.9 µM (inactive); with A549 it was 63 µM (inactive); in the experiment on RPMI-8226 it was > 100 µM (inactive).

For the compound `COC(=O)C1=NN2c3ccccc3CN([C@@H](C)c3ccccc3)C(=O)[C@@H]2[C@H]1c1ccccc1`, the GI50 in the experiment on OVCAR-4, with DU-145, in the experiment with HL-60, in the experiment on MCF7, in the experiment on OVCAR-5 and in the experiment on SK-MEL-2 was > 100 µM (inactive) in each case. In addition, the GI50 with Malme-3M, in the experiment on HOP-92, in the experiment on EKVX, in the experiment with A498, in the experiment on SN12C and in the experiment on SW-620 was > 100 µM (inactive) each time. Besides, the GI50 was > 100 µM (inactive) in the experiment on 786-0; > 100 µM (inactive) with MDA-MB-435; 32.1 µM (inactive) in the experiment with NCI/ADR-RES; > 100 µM (inactive) in the experiment with Hs-578T; > 100 µM (inactive) with UACC-62; > 100 µM (inactive) in the experiment on A549.

Turning to `O=C(NCCCN(CCCCN(CCCNC(=O)C(F)(F)F)CCCc1ccccc1)CCCc1ccccc1)C(F)(F)F`, the GI50 in the experiment on OVCAR-4 was 5.78 µM (inactive); with DU-145 it was 2 µM (inactive); in the experiment with HL-60, 2.93 µM (inactive); with MCF7, 1.48 µM (inactive); in the experiment with OVCAR-5 it was 12.8 µM (inactive); with Malme-3M it was 1.75 µM (inactive). Besides, the GI50 in the experiment on HOP-92 is 1.62 µM (inactive); with EKVX, 1.68 µM (inactive); with A498 it was 2.21 µM (inactive); with SN12C, 2.08 µM (inactive); in the experiment with SW-620, 1.98 µM (inactive); in the experiment on 786-0 it was 1.25 µM (inactive). The GI50 in the experiment with MDA-MB-435 was 1.76 µM (inactive); with NCI/ADR-RES, 3.45 µM (inactive); in the experiment on Hs-578T it was 2.02 µM (inactive); in the experiment on UACC-62, 1.8 µM (inactive); in the experiment on A549 it was 1.82 µM (inactive); with RPMI-8226, 2.63 µM (inactive).

The record behind these values is ChEMBL document CHEMBL1201862, “PubChem BioAssay data set” (2004).
